Source: PMC12799421, “Inhibition of constitutive activity of the atypical chemokine receptor 3 by the small-molecule inverse agonist VUF16840” (Molecular Pharmacology, 2025)
Where two headings read alike, the source gives them in different places.

Key:
HA-hACKR3 = biological target: T1, HA-hACKR3 (Homo sapiens, UniProt P25106); assay: [3H]VUF15485 radioligand binding assay; conditions: 2 nM [3H]VUF15485, HEK293T membranes
T1 construct: expressed in transfected cells; host or cells: HEK293T (membranes, transient expression)
T1 sequence (P25106 whole entry): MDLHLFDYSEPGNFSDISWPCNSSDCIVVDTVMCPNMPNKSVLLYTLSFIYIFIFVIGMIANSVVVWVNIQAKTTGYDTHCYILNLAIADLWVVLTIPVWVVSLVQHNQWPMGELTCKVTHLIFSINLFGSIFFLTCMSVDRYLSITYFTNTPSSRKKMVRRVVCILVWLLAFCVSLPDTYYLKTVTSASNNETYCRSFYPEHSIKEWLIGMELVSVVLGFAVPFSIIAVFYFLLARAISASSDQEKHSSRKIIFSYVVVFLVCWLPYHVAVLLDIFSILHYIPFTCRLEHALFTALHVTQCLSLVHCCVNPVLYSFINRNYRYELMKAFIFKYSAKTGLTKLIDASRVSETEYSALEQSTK
Method: Membranes of HEK293T cells that transiently expressed the NLuc-hACKR3 or HA-hACKR3 were produced as previously described.[23] Briefly, 2 million HEK293T cells were seeded per […] and were transfected the following day using a DNA/PEI-mix containing 0.25 μg plasmid DNA encoding for the ACKR3, 4.75 μg pcDEF3 plasmid DNA and 30 μg linear PEI. Two days after transfection, cells were collected in PBS (137 mM NaCl, 2.57 mM KCl, 1.5 mM KH2PO4, 8 mM Na2HPO4) and pelleted by centrifugation. Cell pellets were resuspended in ice-cold membrane buffer (15 mM Tris, 0.3 mM EDTA, 2 mM MgCl2, pH 7.4 at 4 °C) and dounce-homogenized on ice by plunging the pestle 10 times with 1500 rpm. Cell homogenates were subsequently subjected to 2 freeze-thaw cycles using liquid nitrogen. Next, the cell homogenates were centrifuged at 40,000 g and pellets were resuspended in Tris-sucrose buffer (20 mM Tris, 250 mM sucrose, pH 7.4 at 4 °C). […]
Radioligand binding studies were performed as described earlier.[23] […] Filter-bound [^3H]VUF15485 was measured by adding 25 μL MicroScint-O per well to the dried GF/C-plate and radioactivity was quantified using the Wallac Microbeta counter (Perkin Elmer).
The sigmoidal concentration-dependent displacement of binding of the probes [^3H]VUF15485 and CXCL12-A647 by unlabeled ligands were analyzed using GraphPad Prism 8, by fitting a one-site binding model to the data, to determine the pIC50. Mean pIC50 values were determined by averaging fitted values from individual experiments. […] Similarly, sigmoidal, ligand-induced concentration-dependent activation or inhibition of the proximity between ACKR3 and the protein of interest was analyzed using GraphPad Prism 8, by fitting a 3-parameter concentration-response model to the data, to determine pEC50/pIC50 values. Mean pEC50 values and pIC50 values were determined by averaging fitted values from individual experiments. […]
The ACKR3 ligand VUF16840 was evaluated for its binding to hACKR3 in different competition binding assay formats (Fig. 1). […]

ACKR3 [1] = biological target: T2, ACKR3 (Homo sapiens, UniProt P25106); assay: BRET β-arrestin2 recruitment to hACKR3 in HEK293T cells; format: cell-based; conditions: for EC50: * VUF16840 as inverse agonist, mean ± SD (N), read-out: β-arrestin2 BRET pEC50 (converted)
T2 construct: expressed in transfected cells; host or cells: HEK293T
T2 sequence (P25106 whole entry): as above
Method: For bioluminescence resonance energy transfer (BRET) experiments, several BRET acceptor constructs were used that consist of the pcDEF3 vector with either GRK2 (NCBI: NM_174710.2), β-arrestin1 (NCBI: NM_174243.3), or β-arrestin2 (NCBI: XM_005220181.4) fused at the C-terminus with a SpeI/NotI linker to mVenus (NCBI: KP666136.1), as previously described.[34]
(§1) For 1·10^6 HEK293T cells, a transfection mix consisting of 2 μg plasmid DNA, 12 μg linear PEI in a total volume of 200 μL 150 mM NaCl was made and thoroughly vortexed. The transfection mix was incubated for 15 minutes and consequently added to a cell suspension with a final concentration of 3·10^5 cells/mL. For functional studies this cell suspension was immediately transferred to a poly-L-lysine-coated white 96-well plate, with 3·10^4 cells per well. […] For BRET-based membrane localization experiments, the 2 μg plasmid DNA consisted of ACKR3-NL (0.05 μg), mVenus-CAAX (0.25 μg), and pcDEF3 vector DNA without insert (1.7 μg).
(§2) Mean pIC50 values were determined by averaging fitted values from individual experiments. Graphs depict the pooled data of all experiments. Similarly, sigmoidal, ligand-induced concentration-dependent activation or inhibition of the proximity between ACKR3 and the protein of interest was analyzed using GraphPad Prism 8, by fitting a 3-parameter concentration-response model to the data, to determine pEC50/pIC50 values. Mean pEC50 values and pIC50 values were determined by averaging fitted values from individual experiments. Graphs depict the pooled data of all experiments, for which values are normalized, per experiment, to the fold difference compared with basal signal.

ACKR3 [2] = biological target: T2, ACKR3; assay: BRET ACKR3-Rab5a proximity (early endosome translocation) in HEK293T cells; format: cell-based; conditions: for EC50: * VUF16840 as inverse agonist, read-out: Rab5a BRET pEC50 (converted)
Method: as §1
as §2, with “The sigmoidal concentration-dependent displacement of binding of the probes [^3H]VUF15485 and CXCL12-A647 by unlabeled ligands were analyzed using GraphPad Prism 8, by fitting a one-site binding model to the data, to determine the pIC50. Mean pIC50” for “Mean pIC50”
Fig. 5 Inhibition of both constitutive as well as agonist-induced ACKR3 activity by VUF16840. […] The resulting proximity between ACKR3 and β-arrestin1 (A, E), GRK2 (B, F), or Rab5a (C, G) was determined by bioluminescence resonance energy transfer. Furthermore, an interaction between clathrin A and β-arrestin2 was measured by NLuc complementation, as was determined by quantifying the relative light units (D, H). […]

[3] = read-out: IC50, displacement of [3H]VUF15485 binding from HA-hACKR3

SMILES	IC50 (HA-hACKR3; [3]) [nM]	EC50 (ACKR3 [1]) [nM]	EC50 (ACKR3 [2]) [nM]	IC50 (HA-hACKR3; mean ± SD, read-out: pIC50, displacement of [3H]VUF15485 binding from HA-hACKR3 (converted)) [nM]	IC50 (ACKR3 [1]; constitutive, no agonist, read-out: IC50, reduction of β-arrestin2 recruitment to hACKR3 (BRET)) [nM]	IC50 (ACKR3 [1]; versus 100 nM CXCL11, read-out: β-arrestin2 BRET, Inhibition by VUF16840 (pIC50) (converted)) [nM]	IC50 (ACKR3 [1]; versus 100 nM CXCL12, read-out: β-arrestin2 BRET, Inhibition by VUF16840 (pIC50) (converted)) [nM]	IC50 (ACKR3 [1]; versus 100 nM VUF15485, read-out: β-arrestin2 BRET, Inhibition by VUF16840 (pIC50) (converted)) [nM]	IC50 (ACKR3 [2]; versus 100 nM VUF15485, read-out: Rab5a BRET, Inhibition by VUF16840 (pIC50) (converted)) [nM]
COc1cc(C(=O)N(CCC2CCCN2C)CC(C)=Cc2ccccc2F)cc(OC)c1OC (stereo not drawn) [VUF15485, reference compound]	20	12.6	7.94						
COc1ccccc1CCNC(=O)C1CN(C2CCCCC2)CCC1NC(=O)c1cc(-c2ccc(F)cc2F)on1 (stereo not drawn) [VUF16840]	0.7	10	1.58	0.794	10	2	2.51	10	5.01
